From patent US20160272645A1, “Heterocyclic Compounds and Methods of Use” (MEDIVATION TECHNOLOGIES, INC., priority 2013, published 2016) come the findings set out here.

The target of one assay is T1, BTK (Homo sapiens, UniProt Q06187).
T1 construct: purchased Reaction Biology Corporation
Kind of assay: BTK kinase profiling, HotSpot radiometric assay (Reaction Biology). It is filed as biochemical. Conditions: ATP 10 μM. On the procedure: (§1) Compounds of the invention were profiled in a 10 dose IC50 panel against BTK and PI3Kδ, both provided by Reaction Biology Corporation.
BTK assay: In vitro profiling protein kinases was performed using the “HotSpot” assay platform. Briefly, specific kinase/substrate pairs along with required cofactors were prepared in reaction buffer. Compounds were prepared as 10 mM stock solutions in DMSO. Compounds were delivered into the reaction, followed 15-20 minutes later by addition of a mixture of ATP (Sigma, St. Louis Mo.) and ^33P ATP (Perkin Elmer, Waltham Mass.) to a final concentration of 10 μM. Reactions were carried out at RT for 120 min, followed by spotting of the reactions onto P81 ion exchange filter paper (Whatman Inc., Piscataway, N.J.). Unbound phosphate was removed by extensive washing of filters in 0.75% Phosphoric acid. […] ICso values and curve fits were obtained using Prism (GraphPad Software). Buffer Conditions: 20 mM Hepes (pH 7.5), 10 mM MgCl2, 1 mM EGTA, 0.02% Brij35, 0.02 mg/mL BSA, 0.1 mM Na3VO4, 2 mM DTT, 1% DMSO.

Assay [1] addresses T2, PI3Kδ (Homo sapiens, UniProt O00329).
T2 construct: purchased Reaction Biology Corporation
Kind of assay: PI3Kδ kinase profiling, HTRF PIP3 displacement assay (Reaction Biology). Conditions: compound 1 μM; ATP 10 μM; read-out: PI3Kδ @ 1 μM (% Inh). The assay is classed as biochemical.
Excerpt: as §1
PI3Kδ assay: The PIP3 product is detected by displacement of biotin-PIP3 from an energy transfer complex consisting of Europium labeled anti-GST monoclonal antibody, a GST-tagged pleckstrin homology (PH) domain, biotinylated PIP3 and Streptavidin-Allophycocyanin (APC). Excitation of Europium in the complex results in an energy transfer to the APC and a fluorescent emission at 665 nm. The PIP3 product formed by PI3-Kinase (h) activity displaces biotin-PIP3 from the complex resulting in a loss of energy transfer and thus a decrease in signal. This is a 3-step reaction: First, the kinase reaction with PIP2 substrate is carried out in the presence of ATP (10 μM), and the reaction is quenched with stop Solution, and then finally detect by adding Detection Mixture followed by incubation (10 min). Reaction procedure: 1) Prepare substrate in freshly prepared Reaction Buffer. 2) Deliver kinase into the substrate solution and gently mix. 3) Deliver compounds in 100% DMSO (1 μM) into the kinase reaction mixture by Acoustic technology (Echo550; nanoliter range), incubate for 10 min at RT. 4) Deliver ATP into the reaction mixture to initiate the reaction. 5) Incubate for 30 min at 30° C. 6) Quench the reaction with Stop Solution. 7) Add Detection Mixture, and incubate for overnight. 8) Measure HTRF: Ex=320 nm, ratio of Em=615 nm and Em=665 nm. The emission ratio is converted into μM PIP3 production based on PIP3 standard curves. The nonlinear regression to obtain the standard curve and IC50 values are performed using Graphpad Prism software. Assay Buffer: HEPES 50 mM (pH7.0), NaN3 0.02%, BSA 0.01%, Orthovanadate 0.1 mM, 1% DMSO. Detection buffer: HEPES 10 mM (pH7.0), BSA 0.02%, KF 0.16 M, EDTA 4 mM. Substrate: 10 μM PIP2 substrate (PI(4,5)P2).
For orientation: TR-FRET usually uses a lanthanide donor and a delayed reading to cut background.

Assay [2] has as its system CD69+B220+ cells (mouse spleen cells). Kind of assay: B cell activation assay (IgD-stimulated CD69 on B220+ spleen cells, FACS). The assay is classed as cell-based. Conditions: 100 nM test compound, 30 min, then IgD 3 μg/mL 4 h, read-out: CD69 @ 100 nM (% Inh). On the procedure:
1 Female mouse approximately 2 months old was euthanized with CO2 and the spleen removed. The tissue was homogenized with a polished glass microscope slide. The cells were collected in 5 mL complete medium (RPMI+10% FBS+pen/strep), placed in a 15 mL falcon tube and centrifuged at 500×g for 5 min. The supernatant was discarded and the pellet was resuspended in 3 mL of ACK lysis buffer (NH4Cl 0.17M, KHCO3 10 mM, EDTA-Na2 0.1 mM, pH 7.2), incubated at 37° C. for 5 min. 2 mL complete medium was added and the mixture centrifuged at 500×g for 5 min. The supernatant was discarded and the pellet resuspended in 1 mL complete medium. The mixture was passed through a […] cell strainer and collect in 50 mL falcon tube. Enough medium was added to have a total of 10 mL. The cells were counted and seeded in 24 or 48-well plate in 1 mL complete medium at 10^6 cells/mL. The plate was placed in a 37° C. incubator for 15 min. The cells were treated for 30 min at 37° C. with 100 nM test compound dissolved in 100% DMSO. 3 μL IgD (Accurate chemical and scientific corp.) was added at a final concentration of 3 μg/mL and the mixture incubated at 37° C. for 4 h. The cells were collected in 1.5 mL eppendorf tubes, centrifuged at 500×g for 5 min and then resuspended in 100 μL of PBS+2% FBS. The following antibodies were added: α-B220 PE (pharmingen #553090), α-CD69 APC (pharmingen #60689), live/dead fixable aqua dead cell stain kit (life technologies # L34957) all at 1:300, and the mixture incubated for 15 min at 4° C. in the dark. To this was added 900 μL of PBS+2% FBS and the mixture centrifuged at 500×g for 5 min. The supernatant was removed and the pellet resuspended in 300 μL of PBS+2% FBS and mixed well. The mixture was transferred to a cytometer tube. The samples were run in the FACS Canto II cytometer and quantified by the number of CD69+B220+ cells as a percentage of the total number of B220+ alive cells.

Assay [3] concerns the target T2, PI3Kδ. Kind of assay: PI3Kδ kinase profiling, HTRF PIP3 displacement assay (Reaction Biology). It is filed as biochemical. Conditions: compound 0.1 μM; ATP 10 μM; read-out: PI3Kδ @ 0.1 μM (% Inh).
Assay [4] relates to CD69+B220+ cells (mouse spleen cells). Kind of assay: B cell activation assay (IgD-stimulated CD69 on B220+ spleen cells, FACS). The assay is classed as cell-based. Conditions: IgD 3 μg/mL 4 h.

T2 sequence (O00329 whole entry): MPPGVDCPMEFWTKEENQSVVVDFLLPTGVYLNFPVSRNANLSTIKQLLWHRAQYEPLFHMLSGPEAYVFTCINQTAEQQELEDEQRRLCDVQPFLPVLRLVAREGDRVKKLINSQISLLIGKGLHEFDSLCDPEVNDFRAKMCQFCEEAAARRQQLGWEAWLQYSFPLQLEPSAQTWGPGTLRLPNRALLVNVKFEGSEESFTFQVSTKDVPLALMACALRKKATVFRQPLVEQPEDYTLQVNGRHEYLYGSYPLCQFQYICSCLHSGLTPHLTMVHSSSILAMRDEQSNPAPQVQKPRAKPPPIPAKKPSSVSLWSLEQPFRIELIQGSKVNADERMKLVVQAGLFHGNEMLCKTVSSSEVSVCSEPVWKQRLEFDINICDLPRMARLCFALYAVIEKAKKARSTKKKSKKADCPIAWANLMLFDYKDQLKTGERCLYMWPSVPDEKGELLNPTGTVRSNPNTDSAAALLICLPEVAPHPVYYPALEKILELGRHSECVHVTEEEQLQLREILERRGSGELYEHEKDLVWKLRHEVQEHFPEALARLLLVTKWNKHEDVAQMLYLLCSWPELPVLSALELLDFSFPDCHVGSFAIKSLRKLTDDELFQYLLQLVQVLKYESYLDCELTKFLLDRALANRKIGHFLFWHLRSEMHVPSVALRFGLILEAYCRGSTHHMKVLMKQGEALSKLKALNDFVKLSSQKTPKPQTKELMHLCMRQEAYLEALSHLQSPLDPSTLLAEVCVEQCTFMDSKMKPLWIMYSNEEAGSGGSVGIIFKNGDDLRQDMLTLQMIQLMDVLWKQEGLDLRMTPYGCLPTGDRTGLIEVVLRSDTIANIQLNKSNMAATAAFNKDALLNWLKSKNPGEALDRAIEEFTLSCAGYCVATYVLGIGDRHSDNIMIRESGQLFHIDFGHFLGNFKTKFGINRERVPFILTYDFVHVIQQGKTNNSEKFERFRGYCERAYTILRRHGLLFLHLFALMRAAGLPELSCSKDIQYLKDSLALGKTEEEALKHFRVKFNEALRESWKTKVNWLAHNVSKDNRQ
T2 sequence (P27986 whole entry partner): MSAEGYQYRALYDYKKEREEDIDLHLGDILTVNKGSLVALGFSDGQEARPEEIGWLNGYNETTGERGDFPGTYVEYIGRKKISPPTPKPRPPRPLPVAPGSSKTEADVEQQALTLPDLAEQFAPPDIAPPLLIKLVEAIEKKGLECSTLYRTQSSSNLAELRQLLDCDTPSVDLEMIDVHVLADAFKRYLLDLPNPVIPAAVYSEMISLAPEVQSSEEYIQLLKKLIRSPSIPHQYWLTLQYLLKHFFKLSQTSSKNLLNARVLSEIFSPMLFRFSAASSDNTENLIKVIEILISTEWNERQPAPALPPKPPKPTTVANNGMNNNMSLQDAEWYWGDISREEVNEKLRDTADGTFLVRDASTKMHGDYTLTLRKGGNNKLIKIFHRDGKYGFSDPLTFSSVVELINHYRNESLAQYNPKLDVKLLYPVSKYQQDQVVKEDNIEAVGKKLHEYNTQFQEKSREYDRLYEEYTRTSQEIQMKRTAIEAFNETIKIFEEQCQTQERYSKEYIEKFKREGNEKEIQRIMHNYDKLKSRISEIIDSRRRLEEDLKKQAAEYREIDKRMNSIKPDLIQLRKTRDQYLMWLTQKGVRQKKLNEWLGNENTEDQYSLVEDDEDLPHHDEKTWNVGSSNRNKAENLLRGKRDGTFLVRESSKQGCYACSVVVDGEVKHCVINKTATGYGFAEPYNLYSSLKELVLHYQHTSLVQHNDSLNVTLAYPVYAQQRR
T1 sequence (Q06187 whole entry): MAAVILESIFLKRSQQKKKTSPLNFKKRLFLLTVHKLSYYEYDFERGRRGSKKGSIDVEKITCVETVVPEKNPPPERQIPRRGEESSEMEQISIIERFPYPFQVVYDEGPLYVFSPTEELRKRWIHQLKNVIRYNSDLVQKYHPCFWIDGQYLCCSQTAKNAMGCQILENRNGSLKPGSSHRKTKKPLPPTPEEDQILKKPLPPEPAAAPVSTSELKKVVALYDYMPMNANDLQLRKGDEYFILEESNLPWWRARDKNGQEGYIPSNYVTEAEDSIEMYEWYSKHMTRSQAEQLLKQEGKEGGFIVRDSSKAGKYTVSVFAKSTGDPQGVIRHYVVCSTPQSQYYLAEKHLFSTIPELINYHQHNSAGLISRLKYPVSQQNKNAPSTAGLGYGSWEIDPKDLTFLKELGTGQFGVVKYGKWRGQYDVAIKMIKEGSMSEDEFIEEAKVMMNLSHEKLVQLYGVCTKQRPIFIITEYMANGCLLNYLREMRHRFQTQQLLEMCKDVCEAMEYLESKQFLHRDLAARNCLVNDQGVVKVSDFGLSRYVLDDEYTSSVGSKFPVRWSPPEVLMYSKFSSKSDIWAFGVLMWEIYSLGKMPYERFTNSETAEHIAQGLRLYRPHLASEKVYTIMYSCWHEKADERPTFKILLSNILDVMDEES

As a reminder, the IC50 is the concentration needed to halve the response being measured. Read a low IC50 as higher potency. For the compound `CCC(=O)N(CCn1nc(-c2cc(O)cc(F)c2)c2c(N)ncnc21)Cc1ccccc1` [Compound 7, N-{2-[4-amino-3-(3-fluoro-5-hydroxyphenyl)-1H-pyrazolo[3,4-d]pyrimidin-1-yl]ethyl}-N-benzylpropanamide], the inhibition at 0.1 µM at BTK (compound 0.1 μM, read-out: BTK @ 0.1 μM (% Inh)) was determined as 19.9%; in assay [2] it was 66.5 ± 5.85%; at PI3Kδ [3], 83.5%. The inhibition at 1 µM at BTK (compound 1 μM, read-out: BTK @ 1 μM (% Inh)) is 20.6%; on PI3Kδ [1], 96.3%. The compound also yielded an IC50 in assay [4] of 81.9 ± 6.5 nM.
